Reference: US20240208932A1, “ARYLAMINO DERIVATIVE ESTROGEN RECEPTOR MODULATOR AND USE THEREOF” (XIZANG HAISCO PHARMACEUTICAL CO., LTD., priority 2021, published 2024)

Key:
ERα = ERα (Homo sapiens (Human), UniProt P03372); assay: Degradation effect of compounds on ERα in MCF-7 and CAMA-1 cells (automated western blot, 24 h); format: cell-based; details: ERα degradation in MCF-7 cells; for DC50: 24 hours; for Dmax at 0.1 µM: MCF7, @100 nM
Experimental: 2. Degradation Effect of Compounds on ERα in MCF-7 and CAMA-1 Cells
Breast cancer cells MCF-7 and CAMA-1 were purchased from ATCC, the cell media were all EMEM+10% FBS, and the cells were cultured in an incubator at 37° C. under 5% CO2. On the first day, the cells in an exponential phase were collected. With a 10% css-FBS phenol red-free medium, the cell suspension was adjusted to a corresponding concentration, plated at 300000 cells/well and incubated for 3 days. After 3 days, the liquid in the well was aspirated, and a 10% css-FBS phenol red-free medium containing the compound to be tested was added and cultured in an incubator at 37° C. under 5% CO2. After 24 hours, 60 μl of RIPA lysis solution (containing 1× protease inhibitor cocktail) was added to each well, lysed on ice for 15 minutes, and then centrifuged at 4° C. for 10 minutes at 12000 g. The supernatant protein samples were collected, and protein quantification was performed by a BCA method. ERα was detected using fully automatic protein expression quantitative analysis, which involved diluting the protein to be tested to 1.5 mg/mL. 4 μL of the diluted protein samples were added to 1 μL of 5×Master Mix (provided in the kit), and the prepared samples were denatured at 95° C. for 5 min and placed on ice for use. Antibody Diluent II (provided in the kit) was used to dilute the primary antibody, in which the dilution ratios of ERα (CST, 13258S) and β-actin (CST, 3700) antibodies were 1:40 and 1:500, respectively, the secondary antibody was a 1:1 mixture of goat anti-mouse and goat anti-rabbit secondary antibodies, and the chromogenic solution was a 1:1 mixture of Lumino-S and Peroxide. The prepared reagents were successively added to an assay plate according to instructions of the kit and detected on an instrument. Western blot band processing was performed using “Compass for SW”, a fully automatic protein expression quantitative analysis software, in which western blot bands were automatically simulated based on signal values. The proportion of ERα relative to the solvent control at different drug concentrations according to equation (1), wherein Acompound was the relative peak area of ERα in the treated group, and Asolvent was the relative peak area of ERα in the solvent control group.
ERα%=Acompound/Asolvent×100 equation (1)
DC50 calculation: Calculation was performed according to equation (1), and using Graphpad Prism 8.0 software, the compound concentration DC50 values at which the degradation rate of ERα was 50% were calculated using a non-linear four-parameter function (Non linear regression (curve fit)) (Table 1).

MCF-7 cells = assay: Inhibitory effect of compounds on the proliferation of MCF-7 cells (CellTiter-Glo, 7 days); format: cell-based; details: Homo sapiens, MCF7, 168 h, 7 days incubation
Experimental: 1. Inhibitory Effect of Compounds on the Proliferation of MCF-7 Cells
Breast cancer cells MCF-7 were purchased from ATCC, the cell media were all EMEM+10% FBS, and the cells were cultured in an incubator at 37° C. under 5% CO2. On the first day, cells in the exponential growth phase were collected and cultured in a 10% css-FBS phenol red-free medium without cytokines for 3 days. After the completion of culture, a 10% css-FBS phenol red-free medium was used to adjust the cell suspension to the corresponding concentration and same was plated to 1000 cells/well. P-estradiol and compounds of different concentrations were added. A plate without adding any reagent was taken and used as Day0 with a reading value RLUday0, determined with CellTiter-Glo kit, placed in an incubator and incubated for 7 days. After the incubation was completed, according to operation instructions for a CellTiter-Glo kit (Promega, G7573), 50 μL of CellTiter-Glo solutions, which were pre-melted and equilibrated to room temperature, were added to each well, and the mixtures were uniformly mixed for 2 min using a microplate shaker. The plate was placed at room temperature for 10 min, and then […] signal values were measured using a microplate reader (PHERAstar FSX). Chemiluminescence readouts were processed using origin9.2 software and the DoseResp function was used to calculate the GIsovalue for the inhibitory activity of compounds on the proliferation of cells (Table 1). The results were processed according to equation (1), the inhibition rate of the compound at different concentrations was calculated, and the GI50 value of the compound with a proliferation rate of 50% was calculated using origin9.2 software, wherein RLUcompound was the readout of the treated group, and RLUcontrol was the average value of the solvent control group.
Growth %=(RLUcompound−RLUday0)/(RLUcontrol−RLUday0)×100 equation (1)

ER = details: clinical samples; cited from earlier work

ERα, sequence (P03372 whole entry): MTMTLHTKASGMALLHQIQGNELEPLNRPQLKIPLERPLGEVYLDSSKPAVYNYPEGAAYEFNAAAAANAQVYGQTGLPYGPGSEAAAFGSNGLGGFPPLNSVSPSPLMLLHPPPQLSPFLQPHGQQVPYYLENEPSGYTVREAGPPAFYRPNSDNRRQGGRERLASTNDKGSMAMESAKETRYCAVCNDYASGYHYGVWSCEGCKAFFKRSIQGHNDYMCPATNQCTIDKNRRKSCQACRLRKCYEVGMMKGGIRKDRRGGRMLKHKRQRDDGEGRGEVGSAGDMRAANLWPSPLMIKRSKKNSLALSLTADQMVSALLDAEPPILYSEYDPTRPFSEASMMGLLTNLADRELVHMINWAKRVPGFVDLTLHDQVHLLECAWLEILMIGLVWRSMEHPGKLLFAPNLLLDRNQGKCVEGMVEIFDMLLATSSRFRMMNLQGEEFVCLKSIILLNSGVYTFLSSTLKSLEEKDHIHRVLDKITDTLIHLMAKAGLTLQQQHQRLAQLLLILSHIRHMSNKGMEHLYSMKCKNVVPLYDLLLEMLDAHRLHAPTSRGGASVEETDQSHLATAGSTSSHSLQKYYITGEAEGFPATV

Compound	DC50 (ERα) [nM]	Dmax at 0.1 µM (ERα) [%]	GI50 (MCF-7 cells) [nM]	ER degradation (ER)
C[C@@H]1Cc2c([nH]c3cccc(F)c23)[C@@H](c2c(F)cc(N[C@H]3CCN(CCCF)C3)cc2F)N1CC(F)(F)CO [Compound 15, 3-((1R,3R)-1-(2,6-difluoro-4-(((S)-1-(3-fluoropropyl)pyrrolidin-3-yl)amino)phenyl)-5-fluoro-3-methyl-1,3,4,9-tetrahydro-2H-pyrido[3,4-b]indol-2-yl)-2,2-difluoropropan-1-ol]	0.447	72	–	–
C[C@]12CC[C@@H]3c4ccc(O)cc4C[C@@H](CCCCCCCCC[S+]([O-])CCCC(F)(F)C(F)(F)F)[C@H]3[C@@H]1CC[C@@H]2O (some centres unmarked) [Fulvestrant]	–	–	–	approximately 50%
C#Cc1ccc2c3c([nH]c2c1)[C@@H](c1c(F)cc(NC2CN(CCCF)C2)cc1F)N(CC(F)(F)F)[C@H](C)C3 [Compound 51, N-(4-((1R,3R)-7-ethynyl-3-methyl-2-(2,2,2-trifluoroethyl)-2,3,4,9-tetrahydro-1H-pyrido[3,4-b]indol-1-yl)-3,5-difluorophenyl)-1-(3-fluoropropyl)azetidin-3-amine]	0.712	68	–	–
Cc1ccc2c3c([nH]c2c1)[C@@H](c1c(F)cc(N[C@H]2CCN(CCCF)C2)cc1F)N(CC(F)(F)CO)[C@H](C)C3 [Compound 8, 3-((1R,3R)-1-(2,6-difluoro-4-(((S)-1-(3-fluoropropyl)pyrrolidin-3-yl)amino)phenyl)-3,7-dimethyl-1,3,4,9-tetrahydro-2H-pyrido[3,4-b]indol-2-yl)-2,2-difluoropropan-1-ol]	0.594	70	–	–
CC1Cc2c([nH]c3cc4c(cc23)CC4)C(c2c(F)cc(NC3CN(CCCF)C3)cc2F)N1CC(F)(F)F (single isomer, unassigned) [Compound 22-1, N-(3,5-difluoro-4-(3-methyl-2-(2,2,2-trifluoroethyl)-2,3,4,6,7,9-hexahydro-1H-cyclobuta[f]pyrido[3,4-b]indol-1-yl)phenyl)-1-(3-fluoropropyl)azetidin-3-amine]	1.13	69	–	–

Now from value to compound, other results behind:

DC50 (ERα) [nM]	Dmax at 0.1 µM (ERα) [%]	GI50 (MCF-7 cells) [nM]	Compound	ER degradation (ER)
0.726	70	< 0.026	Cc1ccc2[nH]c3c(c2c1)C[C@@H](C)N(CC(F)(F)CO)[C@@H]3c1c(F)cc(N[C@H]2CCN(CCCF)C2)cc1F [Compound 49, 3-((1R,3R)-1-(2,6-difluoro-4-(((S)-1-(3-fluoropropyl)pyrrolidin-3-yl)amino)phenyl)-3,6-dimethyl-1,3,4,9-tetrahydro-2H-pyrido[3,4-b]indol-2-yl)-2,2-difluoropropan-1-ol]	–
0.244	77	–	C[C@@H]1Cc2c([nH]c3cc(F)ccc23)[C@@H](c2c(F)cc(N[C@H]3CCN(CCCF)C3)cc2F)N1CC(F)(F)CO [Compound 31, 3-((1R,3R)-1-(2,6-difluoro-4-(((S)-1-(3-fluoropropyl)pyrrolidin-3-yl)amino)phenyl)-7-fluoro-3-methyl-1,3,4,9-tetrahydro-2H-pyrido[3,4-b]indol-2-yl)-2,2-difluoropropan-1-ol]	–
0.269	68	< 0.026	C[C@@H]1Cc2c([nH]c3cc(F)c(F)cc23)[C@@H](c2c(F)cc(N[C@H]3CCN(CCCF)C3)cc2F)N1CC(F)(F)CO [Compound 35, 3-((1R,3R)-1-(2,6-difluoro-4-(((S)-1-(3-fluoropropyl)pyrrolidin-3-yl)amino)phenyl)-6,7-difluoro-3-methyl-1,3,4,9-tetrahydro-2H-pyrido[3,4-b]indol-2-yl)-2,2-difluoropropan-1-ol]	–
1.7	72	< 0.026	C[C@@H]1Cc2c([nH]c3ccc(F)cc23)[C@@H](c2c(F)cc(N[C@H]3CCN(CCCF)C3)cc2F)N1CC(F)(F)CF [Compound 38, (S)—N-(3,5-difluoro-4-((1R,3R)-6-fluoro-3-methyl-2-(2,2,3-trifluoropropyl)-2,3,4,9-tetrahydro-1H-pyrido[3,4-b]indol-1-yl)phenyl)-1-(3-fluoropropyl)pyrrolidin-3-amine]	–
